# Tested on: HeLa Cells
# Test: HeLa GI50 determination (SRB growth inhibition)
# Type: cell-based
# Details: 48 h; human cervical carcinoma cell line HeLa S-3; 2 days of treatment; sulforhodamine B staining
# Method: A. HeLa GI50 Determinations
# Growth inhibition (GI50) values were measured on the human cervical carcinoma cell line, HeLa S-3, which were selected for growth on plastic. The HeLa cell assay was based on the description of Skehan et al., J. Natl. Cancer Inst., 82:1107-12 (1990), which is hereby incorporated by reference in its entirety. HeLa cells were plated at 2×10^4 cells/well in 96 well plates. One day later, a control plate was fixed by the addition of TCA to 5%. After five rinses with tap water, the plate was air-dried and stored at 4° C. Test compounds were added to the remaining plates at 10-fold dilutions. Two days later, all plates were fixed as described above. Cells were then stained by the addition of 100 μL per well of 0.4% sulforhodamine B (SRB) in 1% acetic acid for 30 min at 4° C. Wells were then quickly rinsed 5× with 1% acetic acid and allowed to air dry. The SRB was then solubilized by the addition of 100 μL per well of unbuffered 10 mM Tris base. Dye was quantified by measuring absorbance at 490 nm on a Molecular Devices microplate reader. Growth inhibition was calculated according to the following equation: GI=100×(T−T0)/(C−T0), where the optical density (OD) of the test well after 2 days of treatment was T, the OD of the wells in the control plate on day 0 was T0 and C was the OD of untreated wells. […]
row,Compound,GI50
1,"CCc1ccc2[nH]c3c(c2c1)CN1CC(C(C)(F)F)C[C@@H](C1)C[C@]3(C(=O)OC)c1cc2c(cc1OC)N(C)[C@H]1[C@@](O)(C(=O)OC)[C@H](OC(C)=O)[C@]3(CC)C=CCN4CC[C@]21[C@@H]43 (some centres unmarked) [Example 3, 11′-Ethylvinflunine]",170 nM
2,"CC[C@]12C=CCN3CC[C@@]4(c5cc([C@@]6(C(=O)OC)C[C@H]7CC(C(C)(F)F)CN(Cc8c6[nH]c6ccc(SC)cc86)C7)c(OC)cc5N(C)[C@H]4[C@@](O)(C(=O)OC)[C@@H]1OC(C)=O)[C@@H]32 (some centres unmarked) [Example 12, 11′-(Methylsulfanyl)vinflunine]",6.93 nM

# — US20080125451A1, “VINORELBINE DERIVATIVES” (AMR TECHNOLOGY, INC., priority 2006, published 2008)
